Patent US20030207820A1, “Antibacterial compounds with improved pharmacokinetic profiles” (priority 2002, published 2003)
Like-named read-outs stand apart in the source and are kept apart here.

Assay: Pharmacokinetic profiles by cassette dosing in dog (IV and PO)
Type: in vivo
Settings: male beagle dogs, 1 mg/kg; for bioavailability: read-out: F (PO), percent bioavailability
Protocol: The pharmacokinetic profiles of EXAMPLE 20, EXAMPLE 22, EXAMPLE 29 and EXAMPLE 31 were evaluated using cassette dosing protocols in dog. The cassette dosing protocol in dogs combined three test compounds with the reference compound (EXAMPLE 104 of commonly-owned U.S. Pat. No. 5,866,549), each at a dose of 1 mg/kg. The compounds for each cassette were formulated as a solution in an aqueous vehicle containing 10% ethanol and one equivalent hydrochloric acid. Groups of three male beagle dogs received either an intravenous dose (IV) or an oral dose (PO). Sequential blood samples were taken from each animal for 24 hours after dosing. The plasma concentrations of the test compound and reference compounds were simultaneously determined using HPLC-MS/MS following liquid-liquid extraction of the samples. The results are shown in TABLE 2, in which […] is plasma clearance; T1/2 and Tmax are expressed in hours; Cmax is expressed in μg/mL; AUC is expressed in μg·h/mL; F is percent bioavaibility; and volumes of distibution Vc and Vβ are volume of the central compartment and terminal phase distribution, respectively.

Row | SMILES | bioavailability (dog, plasma, oral dose) [%] | AUC (IV) (intravenous dose) [ng·h/mL] | CLp (IV), plasma clearance (intravenous dose) | T½ (IV) (intravenous dose) [h] | Vc (IV), volume of the central compartment (intravenous dose) | Vβ (IV), terminal phase distribution volume (intravenous dose) | AUC (PO) (oral dose) [ng·h/mL] | Cmax (PO) (oral dose) [ng/mL] | Tmax (PO) (oral dose) [h] | T½ (PO) (oral dose) [h] | AUC (dog, in vivo, intravenous dose, read-out: AUC (IV)) [ng·h/mL] | clearance (dog, in vivo, intravenous dose, read-out: CLp (IV), plasma clearance (converted)) [mL/min/kg] | half-life (dog, in vivo, intravenous dose, read-out: T½ (IV) (converted)) [h] | Cmax (dog, in vivo, oral dose) [ng/mL] | Tmax (dog, in vivo, oral dose) [h] | AUC (dog, in vivo, oral dose, read-out: AUC (PO)) [ng·h/mL] | bioavailability (dog, in vivo, oral dose) [%] | half-life (dog, in vivo, oral dose, read-out: T½ (PO) (converted)) [h]
1 | CC[C@H]1OC(=O)[C@H](C)C(=O)[C@H](C)[C@@H](O[C@@H]2O[C@H](C)C[C@H](N(C)C)[C@H]2O)[C@@](C)(OC/C=C/c2ccc(-c3nnn(C)n3)s2)C[C@@H](C)C(=O)[C@H](C)[C@H]2NC(=O)O[C@@]21C [4B, (3aS,4R,7R,9R,10R,11S,13R,15R,15aR)-10-(((2S,3R,4S,6R)-4-(dimethylamino)-3-hydroxy-6-methyltetrahydro-2H-pyran-2-yl)oxy)-4-ethyl-3a,7,9,11,13,15-hexamethyl-11-(((2E)-3-(5-(2-methyl-2H-tetraazol-5-yl)thien-2-yl)prop-2-enyl)oxy)octahydro-2H-oxacyclotetradecino[4,3-d][1,3]oxazole-2,6,8,14(1H,7H,9H)-tetrone] | 63 | 11520 | 0.09 | 8.4 | 0.9 | 1.1 | 6770 | 490 | 1.5 | 7.8 | – | – | – | – | – | – | – | –
2 | CC[C@H]1OC(=O)[C@@](C)(F)C(=O)[C@H](C)[C@@H](O[C@@H]2O[C@H](C)C[C@H](N(C)C)[C@H]2O)[C@@](C)(OCC#Cc2ccc(-c3nnn(C)n3)s2)C[C@@H](C)C(=O)[C@H](C)[C@H]2NC(=O)O[C@@]21C [3B, (3aS,4R,7S,9R,10R,11S,13R,15R,15aR)-10-(((2S,3R,4S,6R)-4-(dimethylamino)-3-hydroxy-6-methyltetrahydro-2H-pyran-2-yl)oxy)-4-ethyl-7-fluoro-3a,7,9,11,13,15-hexamethyl-11-((3-(5-(2-methyl-2H-tetraazol-5-yl)thien-2-yl)prop-2-ynyl)oxy)octahydro-2H-oxacyclotetradecino [4,3-d][1,3]oxazole-2,6,8,14(1H,7H,9H)-tetrone] | 73.6 | 7290 | 0.16 | 14.4 | 1.6 | 3.1 | 5140 | 250 | 2 | 11.1 | – | – | – | – | – | – | – | –
3 | CC[C@H]1OC(=O)[C@H](C)C(=O)[C@H](C)[C@@H](O[C@@H]2O[C@H](C)C[C@H](N(C)C)[C@H]2O)C(C)(OCC#Cc2ccc(-c3nnn(C)n3)s2)C[C@@H](C)C(=O)[C@H](C)[C@H]2NC(=O)O[C@@]21C (stereo in doubt) [7B, (3aS,4R,7R,9R,10R,11S,13R,15R,15aR)-10-(((2S,3R,4S,6R)-4-(dimethylamino)-3-hydroxy-6-methyltetrahydro-2H-pyran-2-yl)oxy)-4-ethyl-3a,7,9,11,13,15-hexamethyl-11-((3-(5-(2-methyl-2H-tetraazol-5-yl)thien-2-yl)prop-2-ynyl)oxy)octahydro-2H-oxacyclotetradecino[4,3-d][1,3]oxazole-2,6,8,14(1H,7H,9H)-tetrone] | – | – | – | – | 0.9 | 1.2 | – | – | – | – | 11900 | 1.5 | 9 | 720 | 1.3 | 9660 | 80.3 | 6.7
4 | CC[C@H]1OC(=O)[C@@](C)(F)C(=O)[C@H](C)[C@@H](O[C@@H]2O[C@H](C)C[C@H](N(C)C)[C@H]2O)[C@@](C)(OC/C=C/c2ccc(-c3nnn(C)n3)s2)C[C@@H](C)C(=O)[C@H](C)[C@H]2NC(=O)O[C@@]21C [8B, (3aS,4R,7S,9R,10R,11S,13R,15R,15aR)-10-(((2S,3R,4S,6R)-4-(dimethylamino)-3-hydroxy-6-methyltetrahydro-2H-pyran-2-yl)oxy)-4-ethyl-7-fluoro-3a,7,9,11,13,15-hexamethyl-11-(((2E)-3-(5-(2-methyl-2H-tetraazol-5-yl)thien-2-yl)prop-2-enyl)oxy)octahydro-2H-oxacyclotetradecino[4,3-d][1,3]oxazole-2,6,8,14(1H,7H,9H)-tetrone] | 81.1 | 16130 | 0.07 | 22.9 | 1.1 | 2.3 | 12600 | 480 | 4.5 | 17.2 | – | – | – | – | – | – | – | –
